Values of other authors as cited in patent US20230172901A1, “COMPOSITIONS AND METHODS FOR THE PROPHYLAXIS AND TREATMENT OF FIBROTIC AND INFLAMMATORY CONDITIONS” (GRETALS AUSTRALIA PTY LTD, priority 2020, published 2023).

System: IPF patients
Conditions: prior art, cited from earlier work

Which “quality of life / respiratory parameters” value (IPF patients) does the source give for `COC(=O)c1ccc2c(c1)NC(=O)/C2=C(\Nc1ccc(N(C)C(=O)CN2CCN(C)CC2)cc1)c1ccccc1` [Nintendanib] here?
The value was “can improve quality of life”.

And the survival (IPF patients)?
Its survival is “do not improve survival”.

Which progression-free survival (IPF patients) does the source give for `Cc1ccc(=O)n(-c2ccccc2)c1` [Perfenidone] here?
The progression-free survival was “improve progression-free survival”.

And the side effects?
The side effects was “provokes a range of side effects in the skin, gastrointestinal tract, liver, and nervous system”.
